According to ChEMBL document CHEMBL1201862, “PubChem BioAssay data set” (2004):
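Each compound was tested at five concentrations against cells in 96-well plates for 48 hours. Here, GI50 denotes the concentration required for 50% inhibition of growth.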 Active and inactive are the calls of the source. Cut-off read from the data, not from the text of the source: active = GI50 up to about 1.1 µM and inactive = higher.

What was measured:
Test in all cases: NCI tumour cell line growth inhibition, 48 h
786-0 = system: 786-0
A498 = system: A498
A549 = system: A549
ACHN = system: ACHN
BT-549 = system: BT-549
CAKI-1 = system: CAKI-1
CCRF-CEM = system: CCRF-CEM
COLO 205 = system: COLO 205
EKVX = system: EKVX
HCC 2998 = system: HCC 2998
HCT-116 = system: HCT-116
HCT-15 = system: HCT-15
HL-60 = system: HL-60
HOP-62 = system: HOP-62
HOP-92 = system: HOP-92
HT-29 = system: HT-29
Hs-578T = system: Hs-578T
IGROV-1 = system: IGROV-1
K562 = system: K562
KM12 = system: KM12
LOX IMVI = system: LOX IMVI
M14 = system: M14
MCF7 = system: MCF7
MDA-MB-231 = system: MDA-MB-231
MDA-MB-435 = system: MDA-MB-435
MDA-N = system: MDA-N
MOLT-4 = system: MOLT-4
Malme-3M = system: Malme-3M
NCI-H226 = system: NCI-H226
NCI-H460 = system: NCI-H460
NCI-H522 = system: NCI-H522
NCI/ADR-RES = system: NCI/ADR-RES
OVCAR-4 = system: OVCAR-4
OVCAR-5 = system: OVCAR-5
OVCAR-8 = system: OVCAR-8
PC-3 = system: PC-3
RPMI-8226 = system: RPMI-8226
RXF 393 = system: RXF 393
SF-268 = system: SF-268
SF-295 = system: SF-295
SF-539 = system: SF-539
SK-MEL-28 = system: SK-MEL-28
SK-MEL-2 = system: SK-MEL-2
SK-MEL-5 = system: SK-MEL-5
SK-OV-3 = system: SK-OV-3
SN12C = system: SN12C
SNB-19 = system: SNB-19
SNB-75 = system: SNB-75
SW-620 = system: SW-620
TK-10 = system: TK-10
U-251 = system: U-251
UACC-257 = system: UACC-257
UACC-62 = system: UACC-62
DU-145 = system: DU-145
NCI-H23 = system: NCI-H23
OVCAR-3 = system: OVCAR-3
SR = system: SR
UO-31 = system: UO-31

SMILES: COc1cccc(NC(=O)c2c(N)n[nH]c2SC)c1
- GI50 (786-0): > 100 µM (inactive)
- GI50 (A498): > 100 µM (inactive)
- GI50 (A549): > 100 µM (inactive)
- GI50 (ACHN): > 100 µM (inactive)
- GI50 (BT-549): > 100 µM (inactive)
- GI50 (CAKI-1): > 100 µM (inactive)
- GI50 (CCRF-CEM): > 100 µM (inactive)
- GI50 (COLO 205): > 100 µM (inactive)
- GI50 (EKVX): > 100 µM (inactive)
- GI50 (HCC 2998): > 100 µM (inactive)
- GI50 (HCT-116): > 100 µM (inactive)
- GI50 (HCT-15): > 100 µM
- GI50 (HL-60): > 100 µM (inactive)
- GI50 (HOP-62): > 100 µM (inactive)
- GI50 (HOP-92): > 100 µM (inactive)
- GI50 (HT-29): > 100 µM (inactive)
- GI50 (Hs-578T): > 100 µM (inactive)
- GI50 (IGROV-1): > 100 µM (inactive)
- GI50 (K562): > 100 µM (inactive)
- GI50 (KM12): > 100 µM (inactive)
- GI50 (LOX IMVI): > 100 µM (inactive)
- GI50 (M14): > 100 µM (inactive)
- GI50 (MCF7): > 100 µM (inactive)
- GI50 (MDA-MB-231): > 100 µM (inactive)
- GI50 (MDA-MB-435): > 100 µM (inactive)
- GI50 (MDA-N): > 100 µM (inactive)
- GI50 (MOLT-4): > 100 µM (inactive)
- GI50 (Malme-3M): > 100 µM (inactive)
- GI50 (NCI-H226): > 100 µM (inactive)
- GI50 (NCI-H460): > 100 µM (inactive)
- GI50 (NCI-H522): > 100 µM (inactive)
- GI50 (NCI/ADR-RES): > 100 µM (inactive)
- GI50 (OVCAR-4): > 100 µM (inactive)
- GI50 (OVCAR-5): > 100 µM (inactive)
- GI50 (OVCAR-8): > 100 µM (inactive)
- GI50 (PC-3): > 100 µM (inactive)
- GI50 (RPMI-8226): 84.9 µM (inactive)
- GI50 (RXF 393): > 100 µM (inactive)
- GI50 (SF-268): > 100 µM (inactive)
- GI50 (SF-295): > 100 µM (inactive)
- GI50 (SF-539): > 100 µM (inactive)
- GI50 (SK-MEL-28): > 100 µM (inactive)
- GI50 (SK-MEL-2): > 100 µM (inactive)
- GI50 (SK-MEL-5): > 100 µM (inactive)
- GI50 (SK-OV-3): > 100 µM (inactive)
- GI50 (SN12C): > 100 µM (inactive)
- GI50 (SNB-19): > 100 µM (inactive)
- GI50 (SNB-75): > 100 µM (inactive)
- GI50 (SW-620): > 100 µM (inactive)
- GI50 (TK-10): > 100 µM (inactive)
- GI50 (U-251): > 100 µM (inactive)
- GI50 (UACC-257): > 100 µM (inactive)
- GI50 (UACC-62): > 100 µM (inactive)

SMILES: COC(=O)CCC(C)C1CCC2C3C(C[C@H](OC(C)=O)[C@]12C)[C@@]1(C)CCC2(C[C@H]1C[C@H]3OC(C)=O)OOC1(CC[C@]3(C)C4C[C@H](OC(C)=O)[C@]5(C)C(C(C)CCC(=O)OC)CCC5C4[C@H](OC(C)=O)C[C@@H]3C1)OO2 (stereo not given in full)
- GI50 (786-0): > 100 µM (inactive)
- GI50 (A549): 91.8 µM (inactive)
- GI50 (ACHN): 33.5 µM (inactive)
- GI50 (BT-549): 97.3 µM (inactive)
- GI50 (CAKI-1): 24 µM (inactive)
- GI50 (CCRF-CEM): 14.8 µM (inactive)
- GI50 (COLO 205): > 100 µM (inactive)
- GI50 (DU-145): 73.1 µM (inactive)
- GI50 (EKVX): > 100 µM (inactive)
- GI50 (HCC 2998): > 100 µM (inactive)
- GI50 (HCT-116): > 100 µM (inactive)
- GI50 (HCT-15): > 100 µM
- GI50 (HL-60): 38.3 µM (inactive)
- GI50 (HOP-62): > 100 µM (inactive)
- GI50 (HT-29): > 100 µM (inactive)
- GI50 (Hs-578T): > 100 µM (inactive)
- GI50 (IGROV-1): > 100 µM (inactive)
- GI50 (K562): > 100 µM (inactive)
- GI50 (KM12): > 100 µM (inactive)
- GI50 (LOX IMVI): > 100 µM (inactive)
- GI50 (M14): > 100 µM (inactive)
- GI50 (MCF7): > 100 µM (inactive)
- GI50 (MDA-MB-231): > 100 µM (inactive)
- GI50 (MDA-MB-435): > 100 µM (inactive)
- GI50 (MDA-N): > 100 µM (inactive)
- GI50 (MOLT-4): 48.4 µM (inactive)
- GI50 (Malme-3M): > 100 µM (inactive)
- GI50 (NCI-H226): 66.8 µM (inactive)
- GI50 (NCI-H23): 84.7 µM (inactive)
- GI50 (NCI-H460): 50.7 µM (inactive)
- GI50 (NCI-H522): > 100 µM (inactive)
- GI50 (NCI/ADR-RES): > 100 µM (inactive)
- GI50 (OVCAR-3): > 100 µM (inactive)
- GI50 (OVCAR-4): > 100 µM (inactive)
- GI50 (OVCAR-5): > 100 µM (inactive)
- GI50 (OVCAR-8): > 100 µM (inactive)
- GI50 (PC-3): > 100 µM (inactive)
- GI50 (RPMI-8226): > 100 µM (inactive)
- GI50 (RXF 393): > 100 µM (inactive)
- GI50 (SF-268): 92 µM (inactive)
- GI50 (SF-295): 78.7 µM (inactive)
- GI50 (SK-MEL-28): > 100 µM (inactive)
- GI50 (SK-MEL-2): > 100 µM (inactive)
- GI50 (SK-MEL-5): > 100 µM (inactive)
- GI50 (SK-OV-3): > 100 µM (inactive)
- GI50 (SN12C): 83.2 µM (inactive)
- GI50 (SNB-19): > 100 µM (inactive)
- GI50 (SNB-75): 68.4 µM (inactive)
- GI50 (SR): 44.3 µM (inactive)
- GI50 (SW-620): > 100 µM (inactive)
- GI50 (TK-10): > 100 µM (inactive)
- GI50 (U-251): 45.1 µM (inactive)
- GI50 (UACC-257): > 100 µM (inactive)
- GI50 (UO-31): 30.9 µM (inactive)

SMILES: COc1cc2c3c(c4ccc(OC)c(OC)c4c2cc1OC)CN1CCC[C@@H]1C3 [TYLOCREBRINE]
- GI50 (786-0): < 0.0173 µM (active)
- GI50 (A498): < 0.01 µM (active)
- GI50 (A549): 0.0251 µM (active)
- GI50 (ACHN): 0.0444 µM (active)
- GI50 (BT-549): 0.0914 µM (active)
- GI50 (CAKI-1): < 0.0216 µM (active)
- GI50 (CCRF-CEM): 0.0269 µM (active)
- GI50 (COLO 205): 0.0228 µM (active)
- GI50 (DU-145): 0.0248 µM (active)
- GI50 (EKVX): 0.0172 µM (active)
- GI50 (HCC 2998): 0.0533 µM (active)
- GI50 (HCT-116): 0.0266 µM (active)
- GI50 (HCT-15): 0.0312 µM
- GI50 (HL-60): 0.0343 µM (active)
- GI50 (HOP-62): 0.0316 µM (active)
- GI50 (HOP-92): < 0.0246 µM (active)
- GI50 (HT-29): 0.0208 µM (active)
- GI50 (Hs-578T): 0.0182 µM (active)
- GI50 (IGROV-1): 0.0407 µM (active)
- GI50 (K562): 0.0191 µM (active)
- GI50 (KM12): 0.0428 µM (active)
- GI50 (LOX IMVI): 0.0249 µM (active)
- GI50 (M14): 0.0333 µM (active)
- GI50 (MCF7): 0.0548 µM (active)
- GI50 (MDA-MB-231): 0.0204 µM (active)
- GI50 (MDA-MB-435): 0.0365 µM (active)
- GI50 (MDA-N): 0.0622 µM (active)
- GI50 (MOLT-4): 0.043 µM (active)
- GI50 (Malme-3M): 0.0248 µM (active)
- GI50 (NCI-H226): < 0.0176 µM (active)
- GI50 (NCI-H23): 0.016 µM (active)
- GI50 (NCI-H460): 0.0392 µM (active)
- GI50 (NCI-H522): 0.0313 µM (active)
- GI50 (NCI/ADR-RES): < 0.0166 µM (active)
- GI50 (OVCAR-3): 0.107 µM (active)
- GI50 (OVCAR-4): 0.0301 µM (active)
- GI50 (OVCAR-5): 0.0745 µM (active)
- GI50 (OVCAR-8): < 0.0146 µM (active)
- GI50 (PC-3): 0.0582 µM (active)
- GI50 (RPMI-8226): 0.0325 µM (active)
- GI50 (RXF 393): < 0.0155 µM (active)
- GI50 (SF-268): < 0.0171 µM (active)
- GI50 (SF-295): 0.0395 µM (active)
- GI50 (SF-539): 0.0191 µM (active)
- GI50 (SK-MEL-28): 0.0307 µM (active)
- GI50 (SK-MEL-2): < 0.0153 µM (active)
- GI50 (SK-MEL-5): 0.0292 µM (active)
- GI50 (SK-OV-3): 0.124 µM (active)
- GI50 (SN12C): 0.0564 µM (active)
- GI50 (SNB-19): 0.0163 µM (active)
- GI50 (SNB-75): < 0.01 µM (active)
- GI50 (SR): 0.0365 µM (active)
- GI50 (SW-620): 0.0586 µM (active)
- GI50 (TK-10): 0.0574 µM (active)
- GI50 (U-251): 0.019 µM (active)
- GI50 (UACC-257): 0.0612 µM (active)
- GI50 (UACC-62): < 0.01 µM (active)
- GI50 (UO-31): < 0.01 µM (active)
